2 molecules from publication PMC11981937 (Nature, 2025) can be followed below.

What all share (assay type): cell-based
The test system of assay [1] is SARS-CoV-2 Delta variant. Description: microbe, parasite or virus in culture. To be noted: Severe acute respiratory syndrome coronavirus 2; SARS-CoV-2 Delta B.1.617.1.
Assay [2] deals with SARS-CoV-2 Omicron BA.1 variant. Description: microbe, parasite or virus in culture. The conditions noted are these: Severe acute respiratory syndrome coronavirus 2, SARS-CoV-2 Omicron B.1.1.529.
For assay [3], the system named is SARS-CoV-2 (B1 variant). Description: microbe, parasite or virus in culture. The conditions noted are these: Severe acute respiratory syndrome coronavirus 2, 48 h.
The test system of assay [4] is SARS-CoV-2_M:A85S.
For assay [5], the system named is SARS-CoV-2_M:W55F.
The subject of assay [6] is SARS-CoV-2 M:A98D.
In assay [7] the test system is SARS-CoV-2_M:L90W.
Assay [8] relates to SARS-CoV-2_M:L29F.
Assay [9] relates to SARS-CoV-2_M:Q185K.
Assay [10] has as its system SARS-CoV-2_M:M91K.
Setting [11] is: read-out: EC50, production of viral RNA.
The mark [12] stands for this setting: read-out: EC90, production of viral RNA.

Like-named read-outs stand apart in the source and are kept apart here.

As to `C[C@H]1Cn2ncc(C(=O)Nc3cccc(C#N)c3)c2C(=O)N1c1ccc(C(F)(F)c2ccccc2)cc1` [JNJ-9676, (S)-N-(3-cyanophenyl)-5-(4-(difluoro(phenyl)methyl)phenyl)-6-methyl-4-oxo-4,5,6,7-tetrahydropyrazolo[1,5-a]pyrazine-3-carboxamide], the EC50 in [1] was determined as 14 nM; in assay [2], 26 nM; in assay [3] (setting [11]), 94 ± 3.4 nM. Also, the EC90 in assay [3] (setting [12]) stood at 132 ± 36.7 nM. Moreover, the “Potency shift (EC50 fold change ± SD vs recombinant WT virus)” value was 0.64 ± 0.21 fold change in assay [4]; 0.62 ± 0.26 fold change in assay [5]; 2.02 ± 0.58 fold change in assay [6]; 2.47 ± 1.48 fold change in [7]; 5.57 ± 0.42 fold change in assay [8]; 5.55 ± 1.92 fold change in assay [9]. Further, in [10], the “Potency shift (EC50 fold change ± SD vs recombinant WT virus)” value came out at 10.03 ± 3.28 fold change.
For `CC(C)(C)[C@H](NC(=O)C(F)(F)F)C(=O)N1C[C@H]2[C@@H]([C@H]1C(=O)N[C@H](C#N)C[C@@H]1CCNC1=O)C2(C)C` [nirmatrelvir, reference compound], the EC50 stood at 109 nM in assay [3] (read-out: EC50, RNA copy numbers (printed in Fig. 1c)) and 109 ± 55.6 nM in assay [3] (setting [11]). For the same molecule, the EC90 in assay [3] (read-out: EC90, RNA copy numbers (printed in Fig. 1c)) worked out at 268 nM; in assay [3] (setting [12]), 268 ± 112 nM.
